Marks after values point to notes of the source that are not given here. Square brackets hold non-standard residues; d marks the D form. Peptide text beside a SMILES is read from it. * marks the point of attachment. Sta = CC(C)C[C@H](N)[C@@H](O)CC(=O)O; Isovaleryl = CC(C)CC(=O)*
Columns and labels:
[1] = test system: Candida albicans strain SA40; details: cited from earlier work
C. albicans = assay: Systemic C. albicans infection in Balb/c mice, PEGylated dAbs; format: in vivo, Candida albicans; details: 1 mg/kg at 2 h, 6 h and 24 h post infection
Protocol: Briefly, mice were chronically infected with C. albicans by injecting 1×10^6 cells per mouse via the lateral tail vein (in 0.2 ml saline). Anti-SAP2 or anti-MP65 dAbs were administered as previously indicated. Survival rates compared with control animals were measured.
PEGylated versions of both monomer and dimer constructs were assayed for efficacy in controlling a systemic C. albicans infection in Balb/c mice, using a protocol similar to the murine systemic model described above. One mg/kg of PEGylated dAb protein or fluconazole was administered at 2 h, 6 h and 24 h post infection to groups of 8 mice.

SAP2 = SAP2 (Candida albicans, UniProt P0DJ06)
Protocol: This was based on bovine serum albumin degradation by a native, highly purified SAP2 preparation, essentially as described by Ross et al. Briefly, each assay contained 0.6 ml of 1% (w/v) BSA (Sigma Chem. Co., Detroit, Mich.) in 50 mM sodium citrate pH 3.2 and 0.15 enzyme solution (100 μg/ml). After 30 min at 37° C. 0.4 ml 10% (w/v) trichloroacetic acid was added. The tubes were stored in ice for 30 min and then centrifuged (1600×g) for 10 min. The absorbance of supernatant was read at 280 nm. The control was 1% BSA in enzyme-free citrate buffer. One unit of enzyme catalysed a delta OD of 1 per minute.

Candida albicans = assay: Adherence of Candida to plastic; format: cell-based; details: anti-MP65 dAbs
Protocol: The fungal cells were grown at 28° C. on YPD agar slants (2.0% wt/vol glucose, 1.0% wt/vol yeast extract, 2.0 wt/vol Bacto peptone, (Difco, Detroit, Mich.). Single suspensions of each organism were prepared by a modification of the procedure of Rotronsen (Rotronsen, D., et al. 1986. Rev Infect Dis.; 8:73-85). Briefly, cells were grown 24 h at 28° C. on a rotating drum in YBD broth pH5.0 (0.2% wt/vol yeast extract, 2.0% wt/vol […] and 2.0% wt/vol dextrose, (Difco, Detroit, Mich.). After harvesting by centrifugation, the C. albicans cells were washed three times in physiological solution (0.85% NaCl). Blastospores were counted with Thoma camera and adjusted to desired concentration (10^8 cells/ml) in Hank's Balanced Salt Solution with calcium and magnesium (Hyclone, Logan, Utah).
For adherence to the plastic, the fungal cells, grown as above, were washed twice with water and suspended at 1.5×10^3 cells/ml in modified Lee's or M199 liquid media. 1.5×10^3 cells were incubated for 3 hrs at 37° C. in 6-well polystyrene plates (Corning Incorporated, Corning, N.Y.,). After extensive washing, 1 ml of Sabouraud dextrose agar was poured in each well and allowed to solidify. After incubation at 37° C. for 24 hrs, colonies were counted and the results expressed as percentage of the inoculum. […]

[2] = test system: Candida albicans strain SA40; assay: Rat vaginal candidiasis model, strain SA40; format: in vivo; details: rats, pre-treated 30 min before intravaginal challenge with SA40
Protocol: The selected dAbs as described above were assayed for their capacity to accelerate fungus clearance from the rat vaginal cavity challenged by a virulent vaginopathic Candida strain. The controls were the use of an irrelevant dAb, and an anti-enolase antibody as negative ones and the antimycotic fluconazole and pepstatin A (the prototypal Sap inhibitor) as positive ones.

Sequence of SAP2 (P0DJ06 57-398): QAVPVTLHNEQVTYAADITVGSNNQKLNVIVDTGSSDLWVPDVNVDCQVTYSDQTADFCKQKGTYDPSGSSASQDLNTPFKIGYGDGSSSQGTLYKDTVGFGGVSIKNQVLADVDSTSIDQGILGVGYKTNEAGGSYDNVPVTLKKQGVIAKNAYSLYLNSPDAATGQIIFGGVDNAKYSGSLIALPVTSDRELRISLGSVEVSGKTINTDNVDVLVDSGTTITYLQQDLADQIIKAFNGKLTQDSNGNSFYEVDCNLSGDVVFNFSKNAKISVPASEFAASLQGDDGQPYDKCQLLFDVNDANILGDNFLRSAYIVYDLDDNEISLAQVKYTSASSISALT

## OC(Cn1cncn1)(Cn1cncn1)c1ccc(F)cc1F [Fluconazole, fluconazole]
[1]
  susceptibility of strain: fully susceptible
C. albicans
  Mean Survival Time: >30 days
  Survival: 88%

## CC(C)CC(=O)N[C@H](C(=O)N[C@H](C(=O)N[C@@H](CC(C)C)[C@@H](O)CC(=O)N[C@@H](C)C(=O)N[C@@H](CC(C)C)[C@@H](O)CC(=O)O)C(C)C)C(C)C [pepstatin, pepstatin A] (Isovaleryl-VV[Sta]A[Sta]-OH)
SAP2; citrate buffer + 1% BSA + SAP, acidic conditions, no-inhibitor control 1.0
  ΔOD/ml/min (BSA degradation by SAP): 0.36 ΔOD/ml/min
SAP2; inhibition of BSA degradation by SAP2, compared with pepstatin (100*)
  % Inhibition: 100* %

B1: ADR3-1: MP65 binding dAb, SEQ ID No 5 (antibody, listed as Homo sapiens, V domains shown)
VH: EVQLLESGGGLVQPGGSLRLSCAASGFTFPDYSMTWVRQAPGKGLEWVSLISNSGKTTMYADSVKGRFTISRDNSKNTLYLQMNSLRAEDTAVYYCAKWVNRILQEFDYWGQGTLVTVSS
modifications: MP65-binding dAb
Candida albicans
  capacity to inhibit adherence to plastic: capacity to inhibit adherence to plastic

B2: ADR4-6: Sap2 binding dAb, SEQ ID No 18 (protein, listed as Homo sapiens)
VHH: EVQLLESGGGLVQPGGSLRLSCAASGFRVSNYDLTWVRQAPGKGLEWVSTISATNGSTYYADSVKGRFTISRDNSKNTLYLQMNSLRAEDTAVYYCAAVTWWLLRHNDNLGFWGQGTLVTVSS
modifications: Sap2-binding dAb
[2]
  day of healing/resolution of infection (<1 CFU/μl of vaginal fluid), preventative: 21 days

B3: ADR4-13: Sap2 binding dAb, SEQ ID No 25 (protein, listed as Homo sapiens)
VHH: EVQLLESGGGLVQPGGSLRLSCAASGFSISYKNMAWVRQAPGKGLEWVSAIKAANGSTYYADSVKGRFTISRDNSKNTLYLQMNSLRAEDTAVYYCATGSQKKRTYTFDFWGQGTLVTVSS
modifications: Sap2-binding dAb
[2]
  day of healing/resolution of infection (<1 CFU/μl of vaginal fluid), preventative: 21 days

From patent publication US8092800B2 (priority 2005, dated 2012)
